# Source: patent US12448364B2, “2, 4-diaminopyrimidine derivative and application thereof” (Shanghai Zheye Biotechnology Co., Ltd., priority 2018, dated 2025)
# Where two headings read alike, the source gives them in different places.
# How the values were obtained:
# ALK2 kinase = ALK2 kinase (Homo sapiens (Human), UniProt Q04771); assay: Inhibitory activity test of the compounds on ALK2 (Promega ALK2 Kinase Enzyme System, ADP-Glo); assay type: biochemical; settings: ADP-Glo chemiluminescence, 65 μM ATP substrate mix; read-out: IC50 (nM) values of the inhibitory activities on ALK2
# Description: 1. Inhibitory Activity Test of the Compounds on ALK2
# ALK2 Kinase Enzyme System kit from Promega was used for the test. Reagents for kinase test was prepared first, the reagents comprising: (1)4×Kinase buffer 250 μL (containing 200 μM DTT); (2)5×Inhibitor mother liquor, i.e., the test compound was prepared into 10 mM mother liquor with DMSO, and the test compound was diluted into 5 mM (20 μL of 10 mM test compound mother liquor+20 μL of DMSO dissolved) with DMSO; (3)1×Kinase buffer (containing 1% DMSO) 200 μL; (4)1×Kinase buffer 40 μL; @Kinase solution 115 μL; (6)Substrate Mix (containing 65 μM ATP) 120 μL. The inhibitor working solution was then prepared, i.e., the test compound was prepared into 5 mM mother liquor with DMSO, 1 μL of 5 mM mother liquor was taken and was diluted into the concentration of 50000 nM by adding 99 μL 1×Kinase buffer; 20 μL of the solution of this concentration was taken, and 80 μL of 1×Kinase buffer (containing 1% DMSO) was added thereto to obtain the concentration of 10000 nM, 5 times dilution was carried out in this way, and a total of 6 concentration gradients were provided. 1 μL of the compound at each concentration was taken and added to a 384-well plate, and then 2 μL Kinase solution (160 mM Tris, 7.5; 80 mM MgCl2; 0.4 mg/ml BSA; 200 μM DTT; ALK2 kinase) was added to each well, and the plate was centrifuged at 1000 rpm for 20 seconds at room temperature, incubated for 30 minutes at 25° C.; then 2 μL of a mixture containing ATP and kinase substrate was added to each well, the plate was centrifuged at 1000 rpm for 20 seconds at room temperature, and incubated at 25° C. for 120 minutes. Then 5 μL of ADP-Glo™ reagent was added to each well, and the plate was incubated at 25° C. for 40 minutes; then 10 μL of Kinase Detection Reagent was added to each well, the plate was incubated at 25° C. for 30 minutes and then was tested; a microplate reader was used to record the chemiluminescence value, the curve was fitted with Origin 7.5, the IC50 (nM) value of the test substance on the ALK2 kinase activity was calculated.
# hepcidin in HepG2 cells = assay: Inhibition test of compounds on hepcidin expression in HepG2 cells (hepcidin ELISA); assay type: cell-based, human; settings: 48 hours incubation, hepcidin protein in supernatant by ELISA, read-out: IC50 (nM) values of the inhibitory activities on hepcidin in HepG2 cells
# Description: 2. Inhibition Test of Compounds on Hepcidin Expression in HepG2 Cells
# HepG2 cells (ATCC HB-8065) in the exponential growth phase were digested with trypsin-EDTA, inoculated into 96-well plates at 5000 cells/well, and cultured in MEM (10% FBS) medium at 37° C. under 5% CO2 conditions for 24 hours, the test compound dissolved in DMSO and diluted in the medium and at a gradient concentration was added to each culture well. The preparation method of the test compound is: a compound mother liquor at a concentration of 10 mM was prepared, and then the compound was diluted in a gradient. The highest concentration of the compound for test was 10 μM, and a total of 8 gradients were obtained by 5-fold dilution. The diluted compound was added to a 96-well plate covered with cells, 50 μL per well. After the compound was added, the plate was placed in an incubator stored at 37° C. and 5% CO2, and incubated for another 48 hours. After the incubation was completed, the 96-well plate was centrifuged at 1000 rpm for 5 minutes at room temperature, the supernatant was taken, ELISA sample loading and detecting were completed within 30 minutes. Hepcidin ELISA kit (Human Hepcidin Quantikine ELISA Kit, R&D systems, Cat #DHP250) was used to quantitatively detect hepcidin protein. […] After washing and color development, the absorbance value was determined with a microplate reader at 450 nm, and the concentration of hepcidin protein in the test sample was calculated according to the quasi-curve of human hepcidin protein determination, and the curve was fitted with Origin 7.5 software, the IC50 (nM) value on the inhibition of producing hepcidin preotein of HepG2 cells by the test compound was calculated.
# ALK2 kinase, sequence (Q04771 21-509): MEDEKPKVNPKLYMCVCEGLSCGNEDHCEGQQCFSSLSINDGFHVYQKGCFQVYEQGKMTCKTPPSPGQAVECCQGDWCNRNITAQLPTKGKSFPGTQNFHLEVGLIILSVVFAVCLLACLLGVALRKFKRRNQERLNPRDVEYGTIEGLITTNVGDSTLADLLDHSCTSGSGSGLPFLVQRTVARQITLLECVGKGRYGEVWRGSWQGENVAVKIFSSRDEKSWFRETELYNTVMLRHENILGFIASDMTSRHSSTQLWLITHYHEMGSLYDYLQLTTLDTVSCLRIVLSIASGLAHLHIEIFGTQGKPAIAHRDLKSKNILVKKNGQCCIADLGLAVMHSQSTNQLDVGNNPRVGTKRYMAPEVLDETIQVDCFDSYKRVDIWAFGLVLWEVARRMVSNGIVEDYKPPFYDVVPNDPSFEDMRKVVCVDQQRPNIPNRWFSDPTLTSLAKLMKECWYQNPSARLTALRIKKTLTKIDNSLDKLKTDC
Structure (SMILES),IC50 (ALK2 kinase) [nM],IC50 (hepcidin in HepG2 cells; Homo sapiens) [nM],IC50 (hepcidin in HepG2 cells) [nM]
"COc1cc(Nc2nccc(Nc3cccnc3-c3ccccn3)n2)ccc1C1CCOCC1 [Compound 1, N^4-(2,2′-bipyridin-3-yl)-N^2-(3-methoxy-4-(tetrahydro-2H-pyran-4-yl)phenyl)pyrimidine-2,4-diamine]",150 to 500,,
"COc1cc(Nc2nccc(Nc3cccnc3-c3ccccn3)n2)ccc1C1CCN(C)CC1 [Compound 2, N^4-(2,2′-bipyridin-3-yl)-N^2-3-(methoxy-4-(1-methylpiperidin-4-yl)phenyl)pyrimidine-2,4-diamine]",≤ 150,14,
"COc1cc(Nc2ncc(OC)c(Nc3cccnc3-c3ccccn3)n2)ccc1C1CCOCC1 [Compound 4, N^4-(2,2′-bipyridin-3-yl)-5-methoxy-N^2-(3-methoxy-4-(tetrahydro-2H-pyran-4-yl)phenyl)pyrimidine-2,4-diamine]",150 to 500,,
"COc1cc(Nc2nccc(Nc3ccc(C)nc3-c3ccccn3)n2)ccc1C1CCN(C)CC1 [Compound 5, N^2-(3-methoxy-4-(1-methylpiperidin-4-yl)phenyl)-N^4-(6-methyl-2,2′-bipyridin-3-yl)pyrimidine-2,4-diamine]",≤ 150,30,
"COc1cc(Nc2nccc(Nc3cccnc3-c3ccccn3)n2)cc(OC)c1OC [Compound I*, reference compound]",≥ 500,,532
